The source of these data is patent publication US20240336629A1, “Tricyclic Derivatives Useful As PARP7 Inhibitors” (JACOBIO PHARMACEUTICALS CO., LTD., priority 2021, published 2024).

In assay [1] the test system is lung cancer cell line H1373 (high expression of PARP7). Description: Lung cancer cell proliferation inhibition experiment (CTG method). The settings on record: H1373 cells, 144 hrs incubation, Cell Titer Glo. It is filed as cell-based.
The next assay deals with PARP7 enzyme (Homo sapiens (Human), UniProt Q7Z3E1). Description: PARP7 enzymatic experiment (HTRF assay). The format is biochemical. Particulars: 4PL fit.
PARP7 enzyme, sequence (Q7Z3E1 456-657): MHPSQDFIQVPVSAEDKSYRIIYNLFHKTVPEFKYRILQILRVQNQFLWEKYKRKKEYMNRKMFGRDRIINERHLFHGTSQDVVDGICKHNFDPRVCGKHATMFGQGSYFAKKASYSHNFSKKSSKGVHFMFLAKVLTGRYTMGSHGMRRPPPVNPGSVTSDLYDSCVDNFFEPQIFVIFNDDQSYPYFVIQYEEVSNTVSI

A word on the IC50: it is the concentration needed to halve the response being measured. A lower IC50 goes with higher potency. Take `COC[C@@H](COCCC(=O)N1CCN2c3ncc(C(F)(F)F)cc3OC[C@H]2C1)Nc1cn[nH]c(=O)c1C(F)(F)F` (single isomer, unassigned) [Compound 66A]: the results for the IC50 (in assay [1]; at PARP7 enzyme) were 0.0855 µM and 0.00205 µM, respectively.
As to `COC[C@@H](COCCC(=O)N1CCN2c3ncc(C(F)(F)F)cc3OC[C@@H]2C1)Nc1cn[nH]c(=O)c1C(F)(F)F` (single isomer, unassigned) [Compound 66B], the figures for the IC50 (in assay [1]; against PARP7 enzyme) were 0.0704 µM and 0.00182 µM, respectively.
The corresponding values for `CC(=O)c1c(N[C@@H](C)COCCC(=O)N2CCN3c4ncc(C(F)(F)F)cc4OCC[C@H]3C2)cn[nH]c1=O` (single isomer, unassigned) [Compound 70A] are 0.0287 µM and 0.0015 µM.
`CC(=O)c1c(N[C@@H](C)COCCC(=O)N2CCN3c4ncc(C(F)(F)F)cc4OCC[C@@H]3C2)cn[nH]c1=O` (single isomer, unassigned) [Compound 70B]: the IC50 came to 0.342 µM in assay [1] and 0.00754 µM against PARP7 enzyme.
Regarding `C[C@@H](COCCC(=O)N1CCN2c3ncc(C(F)(F)F)cc3SCC[C@H]2C1)Nc1cn[nH]c(=O)c1C(F)(F)F` (single isomer, unassigned) [Compound 71B], the IC50 is 0.912 µM in assay [1] and 0.0149 µM against PARP7 enzyme.
For `C[C@@H](COCCC(=O)N1CCN2c3ncc(Br)cc3SCC[C@H]2C1)Nc1cn[nH]c(=O)c1C(F)(F)F` (single isomer, unassigned) [Compound 72A], the IC50 came to 0.0133 µM in assay [1] and 0.000837 µM on PARP7 enzyme.
Consider `C[C@@H](COCCC(=O)N1CCN2c3ncc(C(F)(F)F)cc3C(=O)C[C@@H]2C1)Nc1cn[nH]c(=O)c1C(F)(F)F` (single isomer, unassigned) [Compound 76A], for which the figures for the IC50 (in assay [1]; against PARP7 enzyme) were 0.36 µM and 0.00331 µM, respectively.
With `C[C@@H](COCCC(=O)N1CCN2c3ncc(C(F)(F)F)cc3C(=O)C[C@H]2C1)Nc1cn[nH]c(=O)c1C(F)(F)F` (single isomer, unassigned) [Compound 76B], the IC50 in assay [1] was determined as 0.404 µM; at PARP7 enzyme it was 0.00504 µM.
In the case of `C[C@@H](COCCC(=O)N1CCN2c3ncc(C(F)(F)F)cc3C(F)(F)C[C@@H]2C1)Nc1cn[nH]c(=O)c1C(F)(F)F` (single isomer, unassigned) [Compound 77A], the IC50 in assay [1] was determined as 0.349 µM; at PARP7 enzyme, 0.0126 µM.
Turning to `C[C@@H](COCCC(=O)N1CCN2c3ncc(C(F)(F)F)cc3C(F)(F)C[C@H]2C1)Nc1cn[nH]c(=O)c1C(F)(F)F` (single isomer, unassigned) [Compound 77B], the IC50 in assay [1] turned out to be 0.334 µM; on PARP7 enzyme, 0.004 µM.
For `CC(C)N1C(=O)[C@@H]2CN(C(=O)CCOC[C@H](C)Nc3cn[nH]c(=O)c3C(F)(F)F)CCN2c2ncc(C(F)(F)F)cc21` (single isomer, unassigned) [Compound 83A], the IC50 was determined as 0.143 µM in assay [1] (Homo sapiens, NCI-H1373, 144 h) and 0.00379 µM against PARP7 enzyme.
Regarding `CC(C)N1C(=O)[C@H]2CN(C(=O)CCOC[C@H](C)Nc3cn[nH]c(=O)c3C(F)(F)F)CCN2c2ncc(C(F)(F)F)cc21` (single isomer, unassigned) [Compound 83B], the 50% inhibitory concentration (IC50) in assay [1] (Homo sapiens, NCI-H1373, 144 h) worked out at 0.468 µM; on PARP7 enzyme, 0.00364 µM.
Consider `C[C@@H]1C[C@@H]2CN(C(=O)CCOC[C@@H]3CCN3c3cn[nH]c(=O)c3C(F)(F)F)CCN2c2ncc(C(F)(F)F)cc21` (single isomer, unassigned) [Compound 94A], for which the IC50 in assay [1] is 0.00851 µM; on PARP7 enzyme it was 0.00237 µM.
Regarding `C[C@@H]1C[C@H]2CN(C(=O)CCOC[C@@H]3CCN3c3cn[nH]c(=O)c3C(F)(F)F)CCN2c2ncc(C(F)(F)F)cc21` (single isomer, unassigned) [Compound 94B], the IC50 in assay [1] amounted to 0.0133 µM; against PARP7 enzyme, 0.00294 µM.
As for `C[C@H]1C[C@@H]2CN(C(=O)CCOC[C@@H]3CCN3c3cn[nH]c(=O)c3C(F)(F)F)CCN2c2ncc(C(F)(F)F)cc21` (single isomer, unassigned) [Compound 94C], the IC50 in assay [1] turned out to be 0.00703 µM; at PARP7 enzyme it was 0.0021 µM.
For `C[C@H]1C[C@H]2CN(C(=O)CCOC[C@@H]3CCN3c3cn[nH]c(=O)c3C(F)(F)F)CCN2c2ncc(C(F)(F)F)cc21` (single isomer, unassigned) [Compound 94D], the 50% inhibitory concentration (IC50) came to 0.0158 µM in assay [1] and 0.00355 µM against PARP7 enzyme.
The corresponding values for `COc1ccc(Cn2ncc(N3CC(C)(C)[C@H]3COCCC(=O)N3CCN4c5ncc(C(F)(F)F)cc5N(C)C(=O)[C@@H]4C3)c(C(F)(F)F)c2=O)cc1` (single isomer, unassigned) [Compound 95A] are 0.0399 µM and 0.00357 µM.
Regarding `COc1ccc(Cn2ncc(N3CC(C)(C)[C@H]3COCCC(=O)N3CCN4c5ncc(C(F)(F)F)cc5N(C)C(=O)[C@H]4C3)c(C(F)(F)F)c2=O)cc1` (single isomer, unassigned) [Compound 95B], the IC50 in assay [1] was determined as 0.0485 µM; against PARP7 enzyme, 0.00588 µM.
Regarding `CN1C(=O)[C@@H]2CN(C(=O)CCOC[C@@H]3CCCN3c3cn[nH]c(=O)c3C(F)(F)F)CCN2c2ncc(C(F)(F)F)cc21` (single isomer, unassigned) [Compound 98A], the IC50 in assay [1] came to 0.0555 µM; against PARP7 enzyme it was 0.00125 µM.
On to `CN1C(=O)[C@H]2CN(C(=O)CCOC[C@@H]3CCCN3c3cn[nH]c(=O)c3C(F)(F)F)CCN2c2ncc(C(F)(F)F)cc21` (single isomer, unassigned) [Compound 98B], for which the IC50 turned out to be 0.0371 µM in assay [1] and 0.00136 µM against PARP7 enzyme.
With `CC(=O)c1c(N[C@@H](C)COCCC(=O)N2CCN3c4ncc(C(F)(F)F)cc4N(C)C(=O)[C@@H]3C2)cn[nH]c1=O` [Compound 13A], the IC50 in assay [1] (Homo sapiens, NCI-H1373, 144 h) worked out at 0.0357 µM; at PARP7 enzyme it was 0.00136 µM.
As to `CC(=O)c1c(N[C@@H](C)COCCC(=O)N2CCN3c4ncc(C(F)(F)F)cc4N(C)C(=O)[C@H]3C2)cn[nH]c1=O` [Compound 13B], the IC50 was determined as 0.0522 µM in assay [1] (Homo sapiens, NCI-H1373, 144 h) and 0.00173 µM on PARP7 enzyme.
For `CC[C@@H](COCCC(=O)N1CCN2c3ncc(C(F)(F)F)cc3N(C)C(=O)[C@@H]2C1)Nc1cn[nH]c(=O)c1C(F)(F)F` [Compound 15A], the IC50 in assay [1] (Homo sapiens, NCI-H1373, 144 h) came to 0.0824 µM; at PARP7 enzyme, 0.00193 µM.
Regarding `CC[C@@H](COCCC(=O)N1CCN2c3ncc(C(F)(F)F)cc3N(C)C(=O)[C@H]2C1)Nc1cn[nH]c(=O)c1C(F)(F)F` [Compound 15B], the IC50 in assay [1] (Homo sapiens, NCI-H1373, 144 h) was 0.187 µM; against PARP7 enzyme it was 0.00286 µM.
Consider `C[C@@H](COCCC(=O)N1CCN2c3ncc(F)cc3N(C)C(=O)[C@H]2C1)Nc1cn[nH]c(=O)c1C(F)(F)F` [Compound 19B], for which the IC50 in assay [1] (Homo sapiens, NCI-H1373, 144 h) was 0.221 µM; against PARP7 enzyme, 0.00275 µM.
For `C[C@@H](COCCC(=O)N1CCN2c3ncc(Br)cc3N(C)C(=O)[C@@H]2C1)Nc1cn[nH]c(=O)c1C(F)(F)F` [Compound 21A] the same measures were 0.0809 µM and 0.000424 µM.
Consider `C[C@@H](COCCC(=O)N1CCN2c3ncc(Br)cc3N(C)C(=O)[C@H]2C1)Nc1cn[nH]c(=O)c1C(F)(F)F` [Compound 21B], for which the IC50 was determined as 0.0436 µM in assay [1] (Homo sapiens, NCI-H1373, 144 h) and 0.000812 µM against PARP7 enzyme.
In the case of `CCN1C(=O)[C@@H]2CN(C(=O)CCOC[C@H](C)Nc3cn[nH]c(=O)c3C(F)(F)F)CCN2c2ncc(Cl)cc21` [Compound 22A], the IC50 in assay [1] (Homo sapiens, NCI-H1373, 144 h) was found to be 0.139 µM; on PARP7 enzyme, 0.000846 µM.
For `CCN1C(=O)[C@H]2CN(C(=O)CCOC[C@H](C)Nc3cn[nH]c(=O)c3C(F)(F)F)CCN2c2ncc(Cl)cc21` [Compound 22B], the IC50 in assay [1] (Homo sapiens, NCI-H1373, 144 h) was determined as 0.0641 µM; against PARP7 enzyme it was 0.000969 µM.
For `CCN1C(=O)[C@H]2CN(C(=O)CCOC[C@H](C)Nc3cn[nH]c(=O)c3C(F)(F)F)CCN2c2ncc(Br)cc21` [Compound 23B] the same measures were 0.0461 µM and 0.000863 µM.
On to `COC[C@@H](COCCC(=O)N1CCN2c3ncc(C(F)(F)F)cc3N(C(C)C)C(=O)[C@@H]2C1)Nc1cn[nH]c(=O)c1C(F)(F)F` [Compound 25A], for which the IC50 in assay [1] (Homo sapiens, NCI-H1373, 144 h) is 0.0381 µM; against PARP7 enzyme it was 0.00372 µM.
For `COC[C@@H](COCCC(=O)N1CCN2c3ncc(C(F)(F)F)cc3N(C(C)C)C(=O)[C@H]2C1)Nc1cn[nH]c(=O)c1C(F)(F)F` [Compound 25B], the IC50 came to 0.0534 µM in assay [1] (Homo sapiens, NCI-H1373, 144 h) and 0.00536 µM against PARP7 enzyme.
For `CC(=O)c1c(N[C@@H](C)COCCC(=O)N2CCN3c4ncc(C(F)(F)F)cc4N(C4CC4)C(=O)C3C2)cn[nH]c1=O` (stereo partly shown) [Compound 27] the same measures were 0.441 µM and 0.00698 µM.
As for `C[C@@H](COCCC(=O)N1CCN2c3ncc(F)cc3N(C3CC3)C(=O)[C@@H]2C1)Nc1cn[nH]c(=O)c1C(F)(F)F` [Compound 28A], the values for the IC50 (in assay [1]; on PARP7 enzyme) were 0.275 µM and 0.00753 µM, respectively.
Take `C[C@@H](COCCC(=O)N1CCN2c3ncc(F)cc3N(C3CC3)C(=O)[C@@H]2C1)Nc1cn[nH]c(=O)c1C(F)(F)F` [Compound 28B]: the results for the IC50 (in assay [1]; against PARP7 enzyme) were 0.761 µM and 0.00787 µM, respectively.
As to `C[C@@H](COC[C@@H](O)C(=O)N1CCN2c3ncc(Cl)cc3OCCC2C1)Nc1cn[nH]c(=O)c1C(F)(F)F` (stereo partly shown) [Compound 64A], the IC50 in assay [1] (Homo sapiens, NCI-H1373, 144 h) was 0.208 µM; on PARP7 enzyme it was 0.0015 µM.
Turning to `CC(=O)c1c(N[C@@H](C)COCCC(=O)N2CCN3c4ncc(C(F)(F)F)cc4OCC3C2)cn[nH]c1=O` (stereo partly shown) [Compound 69], the IC50 is 0.483 µM in assay [1] and 0.00392 µM at PARP7 enzyme.
As for `C[C@@H](COCCC(=O)N1CCN2c3ncc(Cl)cc3SCC[C@@H]2C1)Nc1cn[nH]c(=O)c1C(F)(F)F` [Compound 73A], the IC50 in assay [1] (Homo sapiens, NCI-H1373, 144 h) stood at 0.0223 µM; against PARP7 enzyme, 0.000769 µM.
Regarding `C[C@@H](COCCC(=O)N1CCN2c3ncc(C(F)(F)F)cc3[C@@](C)(O)[C@@H]2C1)Nc1cn[nH]c(=O)c1C(F)(F)F` [Compound 79A], the half-maximal inhibitory concentration (IC50) in assay [1] (Homo sapiens, NCI-H1373, 144 h) came to 0.572 µM; on PARP7 enzyme it was 0.00725 µM.
Consider `C[C@@H](COCCC(=O)N1CCN2c3ncc(C(F)(F)F)cc3[C@](C)(O)[C@@H]2C1)Nc1cn[nH]c(=O)c1C(F)(F)F` [Compound 79B], for which the IC50 turned out to be 0.341 µM in assay [1] (Homo sapiens, NCI-H1373, 144 h) and 0.00467 µM against PARP7 enzyme.
Turning to `C[C@@H](COCCC(=O)N1CCN2c3ncc(C(F)(F)F)cc3[C@@](C)(O)[C@H]2C1)Nc1cn[nH]c(=O)c1C(F)(F)F` [Compound 79C], the IC50 in assay [1] (Homo sapiens, NCI-H1373, 144 h) stood at 0.456 µM; at PARP7 enzyme, 0.00477 µM.
